Reference: patent US20090181910A1, “METHOD OF PREVENTION AND ALLEVIATION OF TOXICITY BY MODULATION OF IRF3” (priority 2006, published 2009)

Assays:
UGT1A6 = tested on: UGT1A6; parameters: species or system mice; conditions: mouse, in vivo
Huh7 cells = assay: Rhodamine 123 assay, mitochondrial membrane potential; assay type: cell-based, human; conditions: Huh7 cells co-treated with ASA 20 μg/ml and polyI:C 1 μg/ml transfected, 24 hours; mock-transfected vs RXRα overexpressing
Experimental: FIG. 15: PolyI:C potentiation of ASA-induced mitochondrial damage. pBabe-Huh7 cells (Huh7_MT) and pBabe-RXRα-Huh7 cells (Huh7 RXRα) were stimulated with Control (DMSO) and ASA (20 μg/ml) with or without polyI:C (1 μg/ml, transfected) for 24 hours. Cells were treated with 5 μg/ml of rhodamine 123 (Invitrogen) for 30 min, trypsinized and resuspended in PBS. Flow cytometry was done to determine rhodamine 123 uptake.

CRBPII = assay: BMM Q-PCR: CRBPII; assay type: cell-based, Murine; conditions: LG268 10 nM with polyI:C 1 μg/ml; IRF3^−/− and IFNAR^−/− BMMs; FIG. 10a
Cyp3A11 [1] = conditions: mouse, in vivo
[2] = mouse, in vivo
Cyp1A2 = assay: Liver RNA Q-PCR, polyI:C/APAP-treated mice: Cyp1A2; conditions: polyI:C 100 μg i.v.; FIG. 1B
Hes1 = assay: BMM Q-PCR: Hes1 mRNA; assay type: cell-based, Murine; conditions: FIG. 9b
RXRα [3] = assay type: cell-based, Murine
[4] = Serum ALT in APAP hepatotoxicity
Cyp3A11 [5] = assay: Liver RNA Q-PCR, polyI:C/APAP-treated mice: Cyp3A11; conditions: polyI:C 100 μg i.v.; FIG. 1C
RXRα [6] = assay: RAW264.7 cells with siHes1, Q-PCR: RXRα mRNA; assay type: cell-based, murine; conditions: siRNA specific to Hes1, polyI:C 1 μg/ml 8 hours; FIG. 9d
[7] = mouse, in vivo; remark: listed apart in the source
CYP3A4 = assay: Huh7 Q-PCR: CYP3A4
ZNF202 = assay: BMM Q-PCR: ZNF202 mRNA; assay type: cell-based, Murine; conditions: polyI:C and LPS; data not shown
[8] = Survival following APAP treatment; assay type: in vivo, mice; conditions: for survival against APAP overdose: APAP 600 mg/kg
Experimental: FIG. 4: Percentage survival following APAP treatment with or without polyI:C. (A) Wildtype (n=8) fasted and were treated with 0.1% NaCl or polyI:C (100 μg) intravenous (i.v.) 24 hours prior to treatment with APAP (600 mg/kg) by intraperitoneal (i.p.) injection. (B) Wildtype and IRF3−/− (n=6-8) fasted and were treated with 0.1% NaCl or polyI:C (100 μg) intravenous (i.v.) 24 hours prior to treatment with APAP (600 mg/kg) by intraperitoneal (i.p.) injection. (C) Wildtype mice (n=6-8) fasted and were treated with 0.1% NaCl or polyI:C (100 μg) intravenous (i.v.) and PCN (75 mg/kg) intraperitoneal (i.p.) 24 hours prior to treatment with APAP (175 mg/kg) by intraperitoneal (i.p.) injection.
Age and sex matched 6-9 week old mice were used for all experiments. C57/B16 mice were obtained from Jackson Laboratory. IRF3^−/− mice were obtained from Dr. T. Taniguchi. For APAP hepatotoxicity analysis, mice fasted for […] and then administered Vehicle (0.1% NaCl) or APAP (175-600 mg/kg) by intraperitoneal injection (i.p.). For serum and histological studies, mice were sacrificed at 6-7 hours post injection and serum and liver samples were retrieved. For survival studies, mice were studied for up to 5 days. For polyI:C studies, mice were also treated with 0.1% NaCl or polyI:C (100 μg) intravenous (i.v.) 12-24 hours prior to APAP treatment. To study the effects of PCN on APAP treatment, mice were treated with PCN (75 mg/kg) or control (1% DMSO, corn oil) by intraperitoneal (i.p.) 12-24 hours prior to APAP treatment. To study the effects of ethanol (EtOH) on APAP treatment, mice were given 20% EtOH in water ad libidum for 5 days prior to APAP therapy. PolyI:C treatment for these experiments occurred at Day 3 and Day 5. Serum alanine aminotransferase (ALT) levels were determined using manufacturer's protocol (TECO Diagnostics). For H&E staining, liver samples were fixed in formalin for 48 hours. H&E stainings were done by UCLA Tissue Procurement Core Laboratory (TPCL).

CYP24 = tested on: CYP24; parameters: species or system mice; conditions: mouse, in vivo

polyinosinic:polycytidylic acid [polyI:C]
IRF3 dependence of UGT1A6 repression (UGT1A6): dependent on IRF3 | effect on ASA or PCN induction of UGT1A6 mRNA (UGT1A6): diminished | mitochondrial membrane potential (rhodamine 123) (Huh7 cells): loss of mitochondrial membrane potential in mock-transfected Huh7 cells co-treated with ASA and polyI:C, but not in Huh7 cells overexpressing RXRα | LG268 induction of CRBPII (CRBPII): repressed by polyI:C in IFNAR^−/− BMMs but not IRF3^−/− BMMs | effect on ASA or PCN induction of CYP3A11 mRNA (Cyp3A11 [1]): diminished | effect on induction of CYP3A11 by PCN (Cyp3A11 [1]): blunted the induction of CYP3A11 by PCN | liver damage [2]: strongly induced liver damage | basal Cyp1A2 mRNA level in liver (Cyp1A2): potently repressed | Hes1 mRNA (Hes1; LPS 10 ng/ml or polyI:C 1 μg/ml 4 hrs): potently induced | Hes1 induction in IRF3^−/− and IFNAR^−/− BMMs (Hes1; polyI:C 1 μg/ml 4 hrs): involves IRF3, but not Type I IFNs | polyI:C-mediated inhibition of RXRα mRNA in knockout BMMs (RXRα [3]): defective in IRF3^−/− BMMs but not IFNAR^−/− BMMs | RXRα mRNA repression, extended time course (RXRα [3]; 1, 4 or 8 hrs, FIG. 8b): more potent repressor of RXRα mRNA than LPS | RXRα mRNA in BMMs (RXRα [3]; LPS 10 ng/ml or polyI:C 1 μg/ml, 4 hours, FIG. 8a): repressed RXRα mRNA | RXRα primary transcripts (RXRα [3]; polyI:C 4 or 8 hrs, exon-intron primers, FIG. 9a): strongly repressed | RXRα mRNA stability (RXRα [3]; polyI:C 2 hours then Actinomycin D, FIG. 9a): No significant differences | prevention of ethanol-promoted APAP induction of serum ALT ([4]; 20% EtOH 5 days, polyI:C Day 3 and Day 5, APAP 175 mg/kg, FIG. 2C): effective at preventing ethanol from promoting APAP induction of serum ALT levels | prevention of PCN/APAP induction of serum ALT ([4]; polyI:C 100 μg i.v. and PCN 75 mg/kg 24 h before APAP 175 mg/kg, FIG. 2B): capable of preventing PCN/APAP induction of serum ALT levels | prevention of APAP-induced serum ALT increase ([4]; polyI:C 100 μg i.v. pretreatment, APAP 350 mg/kg, wildtype and IRF3-deficient mice, FIG. 2A): effectively prevented such increase in serum ALT only when IRF3 was present | basal Cyp3A11 mRNA level in liver (Cyp3A11 [5]): potently repressed | polyI:C-mediated repression of RXRα with Hes1 knockdown (RXRα [6]): requirement of Hes1 in polyI:C-mediated repression of RXRα | hepatotoxicity, agent alone [7]: did not cause significant hepatotoxicity | rifampicin induction of CYP3A4 (CYP3A4; Huh7 cells with RXRα overexpression, FIG. 10e): no longer repressed CYP3A4 | rifampicin induction of CYP3A4 (CYP3A4; Huh7 cells, rifampicin 25 μM, transfected polyI:C 2 μg/ml): capable of repressing rifampicin induction | ZNF202 mRNA levels (ZNF202): unaffected | survival against APAP overdose ([8]; IRF3 deficient mice, FIG. 4B): did not protect from APAP overdose | survival with APAP plus PCN ([8]; polyI:C 100 μg i.v. and PCN 75 mg/kg before APAP 175 mg/kg, FIG. 4C): prevents overdose from the combination of APAP and cytochrome P450 inducers such as PCN | survival against APAP overdose ([8]; wildtype mice, polyI:C 100 μg i.v. 24 h prior, FIG. 4A): extremely effective at preventing death from APAP overdose | effect on induction of CYP24 mRNA by 1,25(OH)2D3 (CYP24): blunted
